For eleven compounds, GI50 and TGI results are on record in PubChem BioAssay (NCI).

Some test systems named below: ACHN renal; CAKI-1 renal; TK-10 renal; IGROV1 ovarian; SF-295 CNS; RXF 393 renal; MOLT-4 leukemia; UO-31 renal; 786-0 renal; OVCAR-3 ovarian.
Assay in all cases: DTP human tumour cell line panel, 48 h

Values joined by “and” are separate entries in the source; they are usually repeats but may differ in a detail not shown here. Equal values may be shown once.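 Cells were grown in 96-well plates and exposed to each compound for 48 hours at five concentrations; endpoints were interpolated linearly between bracketing concentrations, or set to the highest concentration if not reached. GI50 = concentration required for 50% inhibition of growth. The concentration for full growth arrest is given as TGI.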

One may read the GI50 as the concentration giving 50% growth inhibition. For orientation: TGI means the concentration giving total growth inhibition. A low value points to greater sensitivity of the cells. As for `O=c1oc2ccc(Cl)cc2c(=O)n1-c1ccc(Cl)cc1F`, the GI50 in the assay on ACHN renal was 0.512 µM; in the assay on CAKI-1 renal, 0.271 µM; in the assay on TK-10 renal it was 1.59 µM; in the assay with IGROV1 ovarian, 0.237 µM; in the assay with SF-295 CNS it was 0.856 µM; in the assay with RXF 393 renal, 0.512 µM. Moreover, the GI50 with MOLT-4 leukemia was 0.581 µM; in the assay with UO-31 renal, 0.188 µM; in the assay on 786-0 renal, 1.76 µM; in the assay on OVCAR-3 ovarian, 0.355 µM. The TGI turned out to be 8.32 µM in the assay on ACHN renal; 1.67 µM in the assay on CAKI-1 renal; 17.7 µM with TK-10 renal; 20.6 µM with IGROV1 ovarian; 2.43 µM with SF-295 CNS; 1.85 µM with RXF 393 renal. In addition, the TGI came out at 2.69 µM in the assay on MOLT-4 leukemia, 1.62 µM in the assay with UO-31 renal, 4.8 µM with 786-0 renal and 13.8 µM in the assay with OVCAR-3 ovarian.

As to `CS(=O)(=O)CCNCc1ccc(-c2ccc3ncnc(Nc4ccc(OCc5ccccc5)c(C(F)(F)F)c4)c3c2)o1`, the GI50 is 7.32 µM with ACHN renal; 7.09 µM with CAKI-1 renal; 7.61 µM with TK-10 renal; 6.36 µM in the assay on IGROV1 ovarian; 5.1 µM in the assay with SF-295 CNS; 3.53 µM with RXF 393 renal. The GI50 with MOLT-4 leukemia was 5.77 µM; in the assay on UO-31 renal, 5.25 µM; with 786-0 renal it was 5.32 µM; with OVCAR-3 ovarian it was 7.37 µM. Further, the TGI was > 25 µM in the assay on ACHN renal; > 25 µM with CAKI-1 renal; 22.7 µM in the assay on TK-10 renal; > 22.2 µM with IGROV1 ovarian; 10.6 µM in the assay with SF-295 CNS; 7.77 µM in the assay on RXF 393 renal. Moreover, the TGI worked out at 17.9 µM in the assay on MOLT-4 leukemia, 17.2 µM with UO-31 renal, 11 µM with 786-0 renal and 19.2 µM in the assay with OVCAR-3 ovarian.

As for `CC1(C)SC2C(C(=O)O)N=C(Cc3ccccc3)N2C1C(=O)O` (configuration not stated), the TGI in the assay with ACHN renal is > 100 µM; in the assay with CAKI-1 renal, > 100 µM; in the assay with TK-10 renal it was 40.5 µM; in the assay with IGROV1 ovarian, > 100 µM; in the assay on SF-295 CNS, > 100 µM; in the assay with RXF 393 renal, > 100 µM. The total growth inhibition concentration (TGI) was > 100 µM in the assay on MOLT-4 leukemia, 39.5 µM with UO-31 renal, 42.1 µM in the assay on 786-0 renal and > 100 µM in the assay on OVCAR-3 ovarian.

Regarding `CC(=O)CC(=O)N(CCN(C(=O)CC(C)=O)c1ccccc1)c1ccccc1`, the concentration for total growth inhibition (TGI) in the assay with ACHN renal, with CAKI-1 renal, in the assay with TK-10 renal, in the assay on IGROV1 ovarian, in the assay with SF-295 CNS and in the assay with RXF 393 renal was > 100 µM throughout. Moreover, the TGI with MOLT-4 leukemia, in the assay on UO-31 renal, with 786-0 renal and in the assay with OVCAR-3 ovarian was > 100 µM throughout.

Turning to `Nc1nc(N)c2nc(CNc3ccc(C(=O)CC(CCC(=O)O)C(=O)O)cc3)cnc2n1` (configuration not stated), the GI50 in the assay with ACHN renal is 0.162 µM; with CAKI-1 renal, 0.0412 µM; in the assay on TK-10 renal it was 0.385 µM; in the assay on IGROV1 ovarian, 0.465 µM; in the assay with SF-295 CNS, 0.19 µM; with RXF 393 renal, > 100 µM. Besides, the GI50 was 0.125 µM with MOLT-4 leukemia, 0.168 µM with UO-31 renal, 0.0566 µM in the assay with 786-0 renal and > 100 µM in the assay on OVCAR-3 ovarian. Further, the TGI in the assay on ACHN renal, with CAKI-1 renal, with TK-10 renal, in the assay on IGROV1 ovarian, with SF-295 CNS and in the assay with RXF 393 renal was > 100 µM in each case. Also, the TGI in the assay with MOLT-4 leukemia, in the assay with UO-31 renal, with 786-0 renal and with OVCAR-3 ovarian was > 100 µM in each case.

Regarding `Cc1cc(C)c(C(=O)O)c(N)c1O`, the TGI with ACHN renal, in the assay with CAKI-1 renal, in the assay on TK-10 renal, in the assay on IGROV1 ovarian, with SF-295 CNS and in the assay on RXF 393 renal was > 100 µM each time. Further, the TGI in the assay with MOLT-4 leukemia, in the assay with UO-31 renal, with 786-0 renal and in the assay with OVCAR-3 ovarian was > 100 µM each time.

With `O=C1c2ccccc2C(=O)N1/N=C\c1ccc(Br)cc1`, the GI50 with ACHN renal, in the assay on IGROV1 ovarian, in the assay with SF-295 CNS, in the assay on MOLT-4 leukemia, in the assay with UO-31 renal and in the assay on 786-0 renal was > 100 µM throughout. In addition, the GI50 in the assay on OVCAR-3 ovarian was > 100 µM. Further, the TGI in the assay on ACHN renal is > 100 µM; in the assay with CAKI-1 renal it was > 10 µM; in the assay on TK-10 renal it was > 10 µM; in the assay with IGROV1 ovarian, > 100 µM; in the assay with SF-295 CNS, > 100 µM; with RXF 393 renal, > 10 µM. For the same compound, the TGI in the assay on MOLT-4 leukemia, in the assay with UO-31 renal, in the assay on 786-0 renal and with OVCAR-3 ovarian was > 100 µM throughout.

Turning to `Nc1ncc(-c2cnn(C3CCNCC3)c2)cc1-c1nc2ccccc2o1`, the GI50 with ACHN renal is 0.86 µM; in the assay with CAKI-1 renal it was 0.532 µM; in the assay with TK-10 renal, 0.924 µM; in the assay on IGROV1 ovarian, 0.211 µM; in the assay with SF-295 CNS it was 1.54 µM; in the assay on RXF 393 renal, 0.485 µM. The GI50 with MOLT-4 leukemia was 0.361 µM; in the assay on UO-31 renal it was 0.714 µM; with 786-0 renal, 1.4 µM; in the assay on OVCAR-3 ovarian, 1.53 µM. For the same compound, the total growth inhibition concentration (TGI) stood at 2.71 µM in the assay with ACHN renal; 2.85 µM in the assay with CAKI-1 renal; 4.04 µM in the assay on TK-10 renal; 0.891 µM with IGROV1 ovarian; 3.43 µM in the assay with SF-295 CNS; 2.25 µM in the assay with RXF 393 renal. The TGI is 1.32 µM in the assay with MOLT-4 leukemia, 2.35 µM in the assay on UO-31 renal, 2.92 µM with 786-0 renal and 3.52 µM with OVCAR-3 ovarian.

Turning to `CCCC(OCC)(OCC)OCC`, the concentration for total growth inhibition (TGI) in the assay with ACHN renal, in the assay on CAKI-1 renal, in the assay on TK-10 renal, in the assay on IGROV1 ovarian, in the assay on SF-295 CNS and in the assay on RXF 393 renal was > 100 µM each time. In addition, the TGI in the assay with MOLT-4 leukemia, in the assay on UO-31 renal, in the assay on 786-0 renal and in the assay with OVCAR-3 ovarian was > 100 µM each time.

With `CS(=O)(=O)c1ccc(N/N=C/c2c(-c3ccc(S(C)(=O)=O)cc3)[nH]c3ccc(F)cc23)cc1`, the GI50 with ACHN renal was 3.32 µM; in the assay on CAKI-1 renal it was > 50 µM; with TK-10 renal, 2.95 µM; in the assay with IGROV1 ovarian, 2.78 µM; with SF-295 CNS it was 0.934 µM; in the assay on RXF 393 renal, 0.904 µM. Also, the GI50 in the assay on MOLT-4 leukemia was 1.19 µM; in the assay on UO-31 renal, 2.16 µM; in the assay on 786-0 renal it was 1.69 µM; with OVCAR-3 ovarian, 2.23 µM. Also, the TGI with ACHN renal was > 50 µM; in the assay with CAKI-1 renal, > 50 µM; with TK-10 renal it was > 50 µM; with IGROV1 ovarian, > 50 µM; in the assay with SF-295 CNS, 1.89 µM; in the assay on RXF 393 renal, 1.94 µM. The TGI with MOLT-4 leukemia, in the assay with UO-31 renal, in the assay with 786-0 renal and with OVCAR-3 ovarian was > 50 µM throughout.

Regarding `O=C(OC(C(=O)O)C(OC(=O)c1ccccc1)C(=O)O)c1ccccc1` (configuration not stated) (tested in a mixture with another compound), the TGI in the assay on ACHN renal is > 100 µM; in the assay with CAKI-1 renal, > 100 µM and 52.2 µM; in the assay with TK-10 renal, > 100 µM; in the assay on IGROV1 ovarian, > 100 µM; in the assay on SF-295 CNS it was > 100 µM; in the assay with RXF 393 renal it was > 100 µM. Besides, the TGI was > 100 µM with MOLT-4 leukemia, > 100 µM with UO-31 renal, > 100 µM in the assay on 786-0 renal and > 69.1 µM with OVCAR-3 ovarian.
